The target of this experiment is T1, human PPARα (Homo sapiens, UniProt Q07869).
T1 construct: borders undisclosed
T1 sequence (Q07869 1-468): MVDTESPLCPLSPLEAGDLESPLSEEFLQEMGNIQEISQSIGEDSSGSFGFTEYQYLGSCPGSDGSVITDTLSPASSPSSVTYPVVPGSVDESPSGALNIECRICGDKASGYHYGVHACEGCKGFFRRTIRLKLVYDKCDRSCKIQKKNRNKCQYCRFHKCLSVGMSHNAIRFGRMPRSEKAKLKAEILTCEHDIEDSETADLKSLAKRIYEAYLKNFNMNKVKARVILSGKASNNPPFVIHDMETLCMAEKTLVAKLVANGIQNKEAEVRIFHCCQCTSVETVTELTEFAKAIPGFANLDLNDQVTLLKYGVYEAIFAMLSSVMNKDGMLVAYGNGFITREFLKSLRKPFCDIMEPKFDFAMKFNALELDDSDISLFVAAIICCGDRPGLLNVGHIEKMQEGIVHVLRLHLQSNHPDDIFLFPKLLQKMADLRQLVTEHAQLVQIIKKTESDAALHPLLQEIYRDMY
Nature of the experiment: Cell-based Luciferase Assay, human PPARα agonist activity (Indigo Biosciences hPPARα IB00111). Particulars: for activation at 0.5 µM: read-out: % PPAR-alpha AGONISM, % at 0.5 μm; for activation at 5 µM: read-out: % PPAR-alpha AGONISM, % at 5 μm; for activation at 50 µM: read-out: % PPAR-alpha AGONISM, % at 50 μm. The source says:
Cell-based Luciferase Assay. […] Luminescence was quantified using a GloMax Explorer (Promega).

Each structure is given as a SMILES string.

As for `O=C(O)c1cccc(NCc2ccc(-c3ccc(F)cc3)cc2)c1` [Example 1, 3-(((4′-Fluoro-[1,1′-biphenyl]-4-yl)methyl)amino)benzoic acid], the activation at 0.5 µM was 35.6%, the activation at 5 µM was found to be 125% and the activation at 50 µM is 55.1%.
As to `O=C(O)c1cccc(NCc2ccc(-c3ccc(C(F)(F)F)cc3)cc2)c1` [Example 2, 3-(((4′-(Trifluoromethyl)-[1,1′-biphenyl]-4-yl)methyl)amino)benzoic acid], the activation at 0.5 µM came out at 74.7%, the activation at 5 µM turned out to be 103% and the activation at 50 µM stood at 27.4%.
The corresponding values for `COc1ccc(-c2ccc(CNc3cccc(C(=O)O)c3)cc2)cc1` [Example 3, 3-(((4′-Methoxy-[1,1′-biphenyl]-4-yl)methyl)amino)benzoic acid] are 32.9%, 112% and 98.3%.
Take `O=C(O)c1cccc(NCc2ccc(-c3ccc(C(F)(F)F)cc3)cc2)c1F` [Example 4, 2-Fluoro-3-(((4′-(trifluoromethyl)-[1,1′-biphenyl]-4-yl)methyl)amino)benzoic acid]: the activation at 0.5 µM turned out to be 73.7%, the activation at 5 µM amounted to 120% and the activation at 50 µM stood at 20.9%.
For `O=C(O)c1cc(NCc2ccc(-c3ccc(C(F)(F)F)cc3)cc2)ccc1F` [Example 5, 2-Fluoro-5-(((4′-(trifluoromethyl)-[1,1′-biphenyl]-4-yl)methyl)amino)benzoic acid], in that order: 67.4%, 92.5% and 54.4%.
On to `O=C(O)c1ccc(F)c(NCc2ccc(-c3ccc(C(F)(F)F)cc3)cc2)c1` [Example 7, 4-Fluoro-3-(((4′-(trifluoromethyl)-[1,1′-biphenyl]-4-yl)methyl)amino)benzoic acid], for which the activation at 0.5 µM was determined as 6.6%, the activation at 5 µM came out at 98% and the activation at 50 µM worked out at 68.1%.
The corresponding values for `O=C(O)c1cc(F)cc(NCc2ccc(-c3ccccc3)cc2)c1` [Example 8, 3-(([1,1′-Biphenyl]-4-ylmethyl)amino)-5-fluorobenzoic Acid] are 17.6%, 50.3% and 95.2%.
The corresponding values for `O=C(O)c1cc(F)cc(NCc2ccc(-c3ccc(C(F)(F)F)cc3)cc2O)c1` [Example 9, 3-Fluoro-5-(((3-hydroxy-4′-(trifluoromethyl)-[1,1′-biphenyl]-4-yl)methyl)amino)benzoic Acid] are 8%, 49.6% and 46.8%.
Take `O=C(O)c1cc(F)cc(NCc2cc(Cl)c(-c3ccc(C(F)(F)F)cc3)c(Cl)c2)c1` [Example 10, 3-(((2,6-Dichloro-4′-(trifluoromethyl)-[1,1′-biphenyl]-4-yl)methyl)amino)-5-fluorobenzoic acid]: the activation at 0.5 µM was found to be 0%, the activation at 5 µM stood at 37.2% and the activation at 50 µM was determined as 17.4%.
Regarding `Cc1cc(CNc2cc(F)cc(C(=O)O)c2)ccc1-c1ccc(C(F)(F)F)cc1C` [Example 12, 3-(((2,2′-Dimethyl-4′-(trifluoromethyl)-[1,1′-biphenyl]-4-yl)methyl)amino)-5-fluorobenzoic Acid], the activation at 0.5 µM was 14.1%, the activation at 5 µM was 46.3% and the activation at 50 µM worked out at 26.5%.
With `Cc1cc(C(F)(F)F)ccc1-c1ccc(CNc2cc(F)cc(C(=O)O)c2)cc1` [Example 13, 3-Fluoro-5-(((2′-methyl-4′-(trifluoromethyl)-[1,1′-biphenyl]-4-yl)methyl)amino)benzoic Acid], the activation at 0.5 µM was 38.3%, the activation at 5 µM was 47.4% and the activation at 50 µM was found to be 27.5%.
The corresponding values for `N#Cc1ccc(-c2ccc(CNc3cc(F)cc(C(=O)O)c3)cc2)cc1` [Example 14, 3-(((4′-Cyano-[1,1′-biphenyl]-4-yl)methyl)amino)-5-fluorobenzoic Acid] are 7%, 58.7% and 83.8%.
For `COc1ccc(-c2ccc(CNc3cc(F)cc(C(=O)O)c3)cc2)cc1` [Example 16, 3-Fluoro-5-(((4′-methoxy-[1,1′-biphenyl]-4-yl)methyl)amino)benzoic acid], in that order: 38.2%, 106% and 96%.
For the compound `O=C(O)c1cc(F)cc(NCc2ccc(-c3ccc(Cl)cc3)cc2)c1` [Example 18, 3-(((4′-Chloro-[1,1′-biphenyl]-4-yl)methyl)amino)-5-fluorobenzoic acid], the activation at 0.5 µM is 38.6%, the activation at 5 µM was 80% and the activation at 50 µM worked out at 87.8%.
The corresponding values for `Cc1ccc(-c2ccc(CNc3cc(F)cc(C(=O)O)c3)cc2)cc1` [Example 19, 3-Fluoro-5-(((4′-methyl-[1,1′-biphenyl]-4-yl)methyl)amino)benzoic acid] are 40.6%, 101% and 98.9%.
Take `O=C(O)c1cc(F)cc(NCc2ccc(-c3ccc(C4CCCC4)cc3)cc2)c1` [Example 20, 3-(((4′-Cyclopentyl-[1,1′-biphenyl]-4-yl)methyl)amino)-5-fluorobenzoic acid]: the activation at 0.5 µM was determined as 38.2%, the activation at 5 µM was 58.5% and the activation at 50 µM is 48%.
On to `O=C(O)c1cc(F)cc(NCc2ccc(-c3ccc(C(F)(F)F)cc3)cn2)c1` [Example 22, 3-Fluoro-5-(((5-(4-(trifluoromethyl)phenyl)pyridin-2-yl)methyl)amino)benzoic Acid], for which the activation at 0.5 µM is 22.1%, the activation at 5 µM was found to be 62.2% and the activation at 50 µM was determined as 42.1%.
`O=C(O)c1cc(F)cc(NCc2cnc(-c3ccc(C(F)(F)F)cc3)s2)c1` [Example 24, 3-fluoro-5-(((2-(4-(trifluoromethyl)phenyl)thiazol-5-yl)methyl)amino)benzoic Acid]: the activation at 0.5 µM turned out to be 15.7%, the activation at 5 µM worked out at 83.3% and the activation at 50 µM is 74.9%.
With `O=C(O)c1cc(F)cc(NCc2csc(-c3ccc(C(F)(F)F)cc3)n2)c1` [Example 25, 3-fluoro-5-(((2-(4-(trifluoromethyl)phenyl)thiazol-4-yl)methyl)amino)benzoic Acid], the activation at 0.5 µM came to 21.7%, the activation at 5 µM came to 88.7% and the activation at 50 µM turned out to be 42.4%.
As for `O=C(O)c1cc(F)cc(NCc2csc(-c3ccc(F)cc3)n2)c1` [Example 26, 3-fluoro-5-(((2-(4-fluorophenyl)thiazol-4-yl)methyl)amino)benzoic Acid], the activation at 0.5 µM is 10.6%, the activation at 5 µM was found to be 14.2% and the activation at 50 µM turned out to be 50%.
For `O=C(O)c1cccc(NCc2cn(-c3ccc(C(F)(F)F)cc3)nn2)c1` [Example 27, 3-(((1-(4-(trifluoromethyl)phenyl)-1H-1,2,3-triazol-4-yl)methyl)amino)benzoic Acid], the activation at 0.5 µM amounted to 51.1%, the activation at 5 µM is 94.3% and the activation at 50 µM stood at 58.5%.

Values taken from patent publication US20260297016A1, “THERAPEUTIC COMPOUNDS” (REGENTS OF THE UNIVERSITY OF MINNESOTA, priority 2023, published 2026).
